Several values for one entry are separate records, joined by “and”; a condition that tells them apart may be missing. Equal values may be shown once.
Assays:
[1] = Adverse effects: intraabdominal pressure, body weight, clinical signs
[2] = tested on: auricular VX2 carcinoma; experiment: Therapy of auricular VX2 carcinoma in rabbits by intraperitoneal gas insufflation (survival, tumor clearance); assay type: in vivo, New Zealand White (NZW) rabbit
[3] = inhaled, mice; cited from earlier work

With O=O [O2, pure medical oxygen] the “maximal drop of mean body weight” value ([1]; compared to mean body weight on day 14) was 5.0%, the “day of tumor clearance” value ([2]; day after tumor cell inoculation) was 68 days and 85 days and the mean survival time ([2]; observation period 90 days after tumor cell inoculation) was 51 days. The “number of rabbits with tumor remission” value ([2]; until day 90) was “two”.

For O=[O+][O-] [ozone], the “adverse effect grade (weight loss)” value [3] is given as “grade II” and the weight loss [3] is given as “up to 14%”.

With “medical ozone/oxygen (O3/O2) gas mixture” the “severe side effects (sustained body weight reduction, gas embolism, fever, diarrhea, peritonitis)” value ([1]; rabbit, in vivo) was “no severe side effects”.
